# Experimental data from PubChem BioAssay AID298 (DTP/NCI, 2004).
# “And” between values parts separate entries of the source, which are not always exact repeats. Identical values can stand only once. Results filed as inconclusive are left out.
# Tested on: MX-1 breast xenograft, intrarenal, nude mice, tumor weight
# Test: NCI In Vivo Anticancer Drug Screen. Data for tumor model Human Mammary Carcinoma MX-1 Xenograft (intrarenal inoculation) in NU/NU BALB/C (nude) mice
# Conditions: endpoint: mean tumor weight change, higher = larger tumour
# In short: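 Compounds were given to mice carrying transplanted tumors, and tumor size or survival was measured. Each value is the treated-group measurement (T) divided by the vehicle-treated control-group measurement (C).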
# [1] = dose: 100.0 mg/kg/injection, schedule: Q04DX003 (ip), vehicle: saline with Tween-80
# [2] = dose: 150.0 mg/kg/injection, schedule: Q04DX003 (ip), vehicle: saline with Tween-80
# [3] = dose: 300.0 mg/kg/injection, schedule: Q04DX003 (ip), vehicle: saline with Tween-80
# [4] = dose: 37.5 mg/kg/injection, schedule: Q04DX003 (sc), vehicle: saline
# [5] = dose: 300.0 mg/kg/injection, schedule: Q04DX003 (sc), vehicle: saline with Tween-80
# [6] = dose: 600.0 mg/kg/injection, schedule: Q04DX003 (sc), vehicle: saline with Tween-80
# [7] = dose: 1200.0 mg/kg/injection, schedule: Q04DX003 (sc), vehicle: saline with Tween-80
structure (smiles),measurement,setting,value
COc1ccc(CC2C(=O)NC(C)C(=O)N(C)C3Cc4ccc(cc4)Oc4cc(ccc4O)CC(C(=O)NC(C)C(=O)NC(C)C(=O)N2C)N(C)C3=O)cc1 (stereo not drawn),T/C,"dose: 8.0 mg/kg/injection, schedule: Q04DX003 (sc), vehicle: saline with Tween-80",27 % of control
same,T/C,"dose: 16.0 mg/kg/injection, schedule: Q04DX003 (sc), vehicle: saline with Tween-80",25 % of control
same,T/C,"dose: 32.0 mg/kg/injection, schedule: Q04DX003 (sc), vehicle: saline with Tween-80",3 % of control
N/C(=N\O)c1cn(C2OC(CO)C(O)C2O)c2ncnc(N)c12 (stereo not drawn),T/C,"dose: 5.0 mg/kg/injection, schedule: Q04DX003 (sc), vehicle: Klucel (hydroxypropylcellulose) (HPC)",91 % of control
same,T/C,"dose: 10.0 mg/kg/injection, schedule: Q04DX003 (sc), vehicle: Klucel (hydroxypropylcellulose) (HPC)",70 % of control
CC1OC(O[C@H]2/C=C/C=C/C=C/C=C/C=C/C=C/C=C/[C@H](C)[C@@H](O)[C@@H](C)[C@H](C)OC(=O)C[C@H](O)C[C@H](O)CC[C@@H](O)[C@H](O)C[C@H](O)C[C@]3(O)C[C@H](O)[C@@H](C(=O)O)[C@H](C2)O3)C(O)C(N)C1O (stereo partly drawn),T/C,"dose: 12.5 mg/kg/injection, schedule: Q04DX003 (ip), vehicle: suspension in saline",61 % of control
same,T/C,"dose: 25.0 mg/kg/injection, schedule: Q04DX003 (ip), vehicle: suspension in saline",57 % of control
same,T/C,"dose: 50.0 mg/kg/injection, schedule: Q04DX003 (ip), vehicle: suspension in saline",77 % of control
same,T/C,"dose: 100.0 mg/kg/injection, schedule: Q04DX003 (ip), vehicle: suspension in saline",84 % of control and 89 % of control
same,T/C,"dose: 200.0 mg/kg/injection, schedule: Q04DX003 (ip), vehicle: suspension in saline",73 % of control
same,T/C,"dose: 400.0 mg/kg/injection, schedule: Q04DX003 (ip), vehicle: suspension in saline",79 % of control
CNC(=O)N(C)N=NCCCl,T/C,[1],15 % of control
same,T/C,"dose: 140.0 mg/kg/injection, schedule: Q04DX003 (ip), vehicle: saline with Tween-80",10 % of control
same,T/C,"dose: 200.0 mg/kg/injection, schedule: Q04DX003 (ip), vehicle: saline with Tween-80",1 % of control
same,T/C,"dose: 240.0 mg/kg/injection, schedule: Q04DX003 (ip), vehicle: saline with Tween-80",8 % of control
same,T/C,"dose: 400.0 mg/kg/injection, schedule: Q04DX003 (ip), vehicle: saline with Tween-80",-76 % of control
COc1cc2oc3c(C)c(=O)cc4oc(-c5ccccc5)cc(c2c2c1CCC(c1ccccc1)O2)c43 (stereo not drawn),T/C,"dose: 7.0 mg/kg/injection, schedule: Q04DX003 (ip), vehicle: Klucel (hydroxypropylcellulose) (HPC)",88 % of control
same,T/C,"dose: 14.0 mg/kg/injection, schedule: Q04DX003 (ip), vehicle: Klucel (hydroxypropylcellulose) (HPC)",82 % of control
same,T/C,"dose: 37.5 mg/kg/injection, schedule: Q04DX003 (ip), vehicle: saline with Tween-80",111 % of control
same,T/C,"dose: 56.0 mg/kg/injection, schedule: Q04DX003 (ip), vehicle: Klucel (hydroxypropylcellulose) (HPC)",107 % of control
same,T/C,"dose: 75.0 mg/kg/injection, schedule: Q04DX003 (ip), vehicle: saline with Tween-80",77 % of control
same,T/C,[2],117 % of control
same,T/C,[3],52 % of control
O=P(O)(NCCCl)NCCCl,T/C,[4],31 % of control
CCC(=O)N(C)[C@@H](C)C(=O)O[C@H]1CC(=O)N(C)c2cc(cc(OC)c2Cl)C/C(C)=C/C=C[C@@H](OC)[C@@]2(O)C[C@H](OC(=O)N2)[C@@H](C)[C@@H]2O[C@@]12C,T/C,"dose: 0.12 mg/kg/injection, schedule: Q04DX003 (sc), vehicle: saline + alcohol",100 % of control
same,T/C,"dose: 0.25 mg/kg/injection, schedule: Q04DX003 (sc), vehicle: saline + alcohol",48 % of control
same,T/C,"dose: 0.5 mg/kg/injection, schedule: Q04DX003 (sc), vehicle: saline + alcohol",5 % of control
same,T/C,"dose: 7.5 micrograms/kg/injection, schedule: Q04DX004 (ip), vehicle: saline + alcohol",115 % of control
same,T/C,"dose: 15.0 micrograms/kg/injection, schedule: Q04DX004 (ip), vehicle: saline + alcohol",67 % of control
CC(C)c1cc(C(=O)O)c(O)c(C(C)C)c1.CC(C)c1cc(C(=O)O)c(O)c(C(C)C)c1.[Cu],T/C,"dose: 12.5 mg/kg/injection, schedule: Q04DX003 (ip), vehicle: saline with Tween-80",74 % of control
same,T/C,"dose: 50.0 mg/kg/injection, schedule: Q04DX003 (ip), vehicle: saline with Tween-80",116 % of control
same,T/C,[1],90 % of control
CNC(=O)Oc1ccc(S(=O)(=O)c2ccc(OC(=O)NC)cc2)cc1,T/C,[2],98 % of control
same,T/C,[3],89 % of control
same,T/C,"dose: 600.0 mg/kg/injection, schedule: Q04DX003 (ip), vehicle: saline with Tween-80",33 % of control
O=C/C(Cl)=C(/Cl)C(=O)O,T/C,"dose: 10.0 mg/kg/injection, schedule: Q01DX010 (sc), vehicle: saline with Tween-80",87 % of control
same,T/C,"dose: 20.0 mg/kg/injection, schedule: Q01DX010 (sc), vehicle: saline with Tween-80",36 % of control
same,T/C,"dose: 40.0 mg/kg/injection, schedule: Q01DX010 (sc), vehicle: saline with Tween-80",41 % of control
Cn1c(-c2ccc(/C=N\N3CCN(/N=C/c4ccc(-c5c[n+]6ccsc6n5C)cc4)CC3)cc2)c[n+]2ccsc12,T/C,"dose: 3.0 mg/kg/injection, schedule: Q04DX003 (ip), vehicle: saline with Tween-80",79 % of control
[N-]=[N+]=[N-],T/C,"dose: 1.5 mg/kg/injection, schedule: Q04DX003 (ip), vehicle: water",66 % of control
same,T/C,"dose: 6.0 mg/kg/injection, schedule: Q04DX003 (ip), vehicle: water",66 % of control
same,T/C,"dose: 12.0 mg/kg/injection, schedule: Q04DX003 (ip), vehicle: water",64 % of control
CCC1(O)C(=O)OCc2c1cc1n(c2=O)Cc2cc3cc4c(cc3nc2-1)OCO4 (stereo not drawn),T/C,"dose: 4.0 mg/kg/injection, schedule: Q04DX003 (ip), vehicle: saline with Tween-80",-100 % of control
O=C1C=CC2OC(c3ccccc3)C(O)C2O1 (stereo not drawn),T/C,"dose: 25.0 mg/kg/injection, schedule: Q04DX003 (ip), vehicle: DMSO",114 % of control
same,T/C,"dose: 50.0 mg/kg/injection, schedule: Q04DX003 (ip), vehicle: DMSO",40 % of control
CO[C@@H]1C2=CC=CC=C[C@H]2n2c(=O)n(C)c(=O)n21,T/C,"dose: 75.0 mg/kg/injection, schedule: Q04DX003 (ip), vehicle: other",36 % of control
same,T/C,"dose: 150.0 mg/kg/injection, schedule: Q04DX003 (ip), vehicle: other",34 % of control
same,T/C,"dose: 300.0 mg/kg/injection, schedule: Q04DX003 (ip), vehicle: other",92 % of control
NC1(C(=O)O)CCCC1,T/C,"dose: 25.0 mg/kg/injection, schedule: Q01DX010 (sc), vehicle: saline",73 % of control
same,T/C,"dose: 50.0 mg/kg/injection, schedule: Q01DX010 (sc), vehicle: saline",31 % of control
CN=C(NC)c1ccc(NC(=O)/C=C\c2ccc(/C=C/C(=O)Nc3ccc(C(=NC)NC)cc3)cc2)cc1,T/C,"dose: 6.25 mg/kg/injection, schedule: Q04DX003 (ip), vehicle: Klucel (hydroxypropylcellulose) (HPC)",89 % of control
CCN(CC)Cc1cc2[nH]c3c4ccc(Cl)cc4ncc3c2cc1OC,T/C,"dose: 75.0 mg/kg/injection, schedule: Q04DX003 (sc), vehicle: saline with Tween-80",92 % of control
same,T/C,[5],73 % of control
Clc1ccc(CN2COc3c(ccc4cccnc34)C2)cc1Cl,T/C,"dose: 100.0 mg/kg/injection, schedule: Q01DX010 (sc), vehicle: saline with Tween-80",91 % of control
same,T/C,"dose: 400.0 mg/kg/injection, schedule: Q01DX010 (sc), vehicle: saline with Tween-80",71 % of control
same,T/C,"dose: 800.0 mg/kg/injection, schedule: Q01DX010 (sc), vehicle: saline with Tween-80",44 % of control
O=C(O)[C@H](Cc1ccccc1)N1C(=O)c2ccccc2C1=O,T/C,"dose: 150.0 mg/kg/injection, schedule: Q04DX003 (ip), vehicle: DMSO",77 % of control
same,T/C,"dose: 300.0 mg/kg/injection, schedule: Q04DX003 (ip), vehicle: DMSO",60 % of control
same,T/C,"dose: 600.0 mg/kg/injection, schedule: Q04DX003 (ip), vehicle: DMSO",33 % of control
O=C(Nc1cccc(Cl)c1)ON1C(=O)C2C(C1=O)C1(Cl)C(Cl)C(Cl)C2(Cl)C1(Cl)Cl (stereo not drawn),T/C,[5],91 % of control
same,T/C,[6],100 % of control
same,T/C,[7],91 % of control
same,T/C,"dose: 2400.0 mg/kg/injection, schedule: Q04DX003 (sc), vehicle: saline with Tween-80",114 % of control
CCC1OC(OC)C=CC1=O (stereo not drawn),T/C,"dose: 18.75 mg/kg/injection, schedule: Q04DX003 (sc), vehicle: saline",112 % of control
same,T/C,[4],63 % of control
same,T/C,"dose: 75.0 mg/kg/injection, schedule: Q04DX003 (sc), vehicle: saline",98 % of control
O=[N+]([O-])c1ccc(Sc2ccncn2)c([N+](=O)[O-])c1,T/C,"dose: 150.0 mg/kg/injection, schedule: Q04DX003 (sc), vehicle: saline with Tween-80",158 % of control
same,T/C,[5],153 % of control
same,T/C,[6],86 % of control
same,T/C,[7],115 % of control
O=NNc1cccnc1,T/C,"dose: 25.0 mg/kg/injection, schedule: Q04DX003 (ip), vehicle: water",103 % of control and 113 % of control
same,T/C,"dose: 50.0 mg/kg/injection, schedule: Q04DX003 (ip), vehicle: water",108 % of control
NS(=O)(=O)OCCCCCCCOS(N)(=O)=O,T/C,[2],-40 % of control
